Patent US10392348B2, “2-oxo-3,4-dihydroquinoline compounds as plant growth regulators” (Syngenta Participations AG, priority 2015, dated 2019)

Tested on: soybean plants (variety S20-G7)
Assay: Reduced plant water use in soybean (foliar spray, repeated weighing of pots)
Format: in vivo
Details: Glycine max, foliar, 0 h, Table B1, sprayed at 500 μM, vs negative control, 0 DAA a.m. (10:30-12:50), read-out: % WU 0 DAA AM
Outline: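 Compounds in blank EC formulation diluted in water with EXTRAVON 1 g/20 L, foliar-sprayed on 12-day-old soybean in growth chambers. Water use from repeated pot weighing at a.m./p.m. periods over 0-2 DAA, summed to cumulative 0-2.5 DAA; ANCOVA with pre-application baseline covariate, relative to blank-formulation control.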

| SMILES | change in vivo at 500 µM [%] |
| --- | --- |
| CCCN1C(=O)CCc2cc(CNS(=O)(=O)c3ccc(OC)cc3)ccc21 [Compound 3.010, 4-methoxy-N-[(2-oxo-1-propyl-3,4-dihydroquinolin-6-yl)methyl]benzenesulfonamide] | -28 |
| CCN1C(=O)CCc2cc(CNS(=O)(=O)c3ccc(C)s3)ccc21 [Compound 2.061, N-[(1-ethyl-2-oxo-3,4-dihydroquinolin-6-yl)methyl]-5-methyl-thiophene-2-sulfonamide] | -50.4 |
| CCN1C(=O)CCc2cc(CNS(=O)(=O)c3ccsc3)ccc21 [Compound 2.068, N-[(1-ethyl-2-oxo-3,4-dihydroquinolin-6-yl)methyl]thiophene-3-sulfonamide] | -27 |

Same assay, conditions: Glycine max, foliar, 24 h, Table B1, sprayed at 500 μM, vs negative control, 1 DAA a.m. (7:30-12:50), read-out: % WU 1DAA AM

| SMILES | change in vivo at 500 µM [%] |
| --- | --- |
| CCCN1C(=O)CCc2cc(CNS(=O)(=O)c3ccc(OC)cc3)ccc21 [Compound 3.010, 4-methoxy-N-[(2-oxo-1-propyl-3,4-dihydroquinolin-6-yl)methyl]benzenesulfonamide] | -3 |
| CCN1C(=O)CCc2cc(CNS(=O)(=O)c3ccc(C)s3)ccc21 [Compound 2.061, N-[(1-ethyl-2-oxo-3,4-dihydroquinolin-6-yl)methyl]-5-methyl-thiophene-2-sulfonamide] | -7.9 |
| CCN1C(=O)CCc2cc(CNS(=O)(=O)c3ccsc3)ccc21 [Compound 2.068, N-[(1-ethyl-2-oxo-3,4-dihydroquinolin-6-yl)methyl]thiophene-3-sulfonamide] | -18.1 |

Same assay, conditions: Glycine max, foliar, 24 h, Table B1, sprayed at 500 μM, vs negative control, 1 DAA p.m. (14:00-19:50), read-out: % WU 1DAA PM

| SMILES | change in vivo at 500 µM [%] |
| --- | --- |
| CCCN1C(=O)CCc2cc(CNS(=O)(=O)c3ccc(OC)cc3)ccc21 [Compound 3.010, 4-methoxy-N-[(2-oxo-1-propyl-3,4-dihydroquinolin-6-yl)methyl]benzenesulfonamide] | -1 |
| CCN1C(=O)CCc2cc(CNS(=O)(=O)c3ccc(C)s3)ccc21 [Compound 2.061, N-[(1-ethyl-2-oxo-3,4-dihydroquinolin-6-yl)methyl]-5-methyl-thiophene-2-sulfonamide] | -2.2 |
| CCN1C(=O)CCc2cc(CNS(=O)(=O)c3ccsc3)ccc21 [Compound 2.068, N-[(1-ethyl-2-oxo-3,4-dihydroquinolin-6-yl)methyl]thiophene-3-sulfonamide] | -14.7 |

Same assay, conditions: Glycine max, foliar, 48 h, Table B1, sprayed at 500 μM, vs negative control, 2 DAA a.m. (07:30-12:50), read-out: % WU 2 DAA AM

| SMILES | change in vivo at 500 µM [%] |
| --- | --- |
| CCCN1C(=O)CCc2cc(CNS(=O)(=O)c3ccc(OC)cc3)ccc21 [Compound 3.010, 4-methoxy-N-[(2-oxo-1-propyl-3,4-dihydroquinolin-6-yl)methyl]benzenesulfonamide] | -2.1 |
| CCN1C(=O)CCc2cc(CNS(=O)(=O)c3ccc(C)s3)ccc21 [Compound 2.061, N-[(1-ethyl-2-oxo-3,4-dihydroquinolin-6-yl)methyl]-5-methyl-thiophene-2-sulfonamide] | -0.5 |
| CCN1C(=O)CCc2cc(CNS(=O)(=O)c3ccsc3)ccc21 [Compound 2.068, N-[(1-ethyl-2-oxo-3,4-dihydroquinolin-6-yl)methyl]thiophene-3-sulfonamide] | -11.6 |

Same assay, conditions: Glycine max, foliar, 48 h, Table B1, sprayed at 500 μM, vs negative control, 2 DAA p.m. (14:00-19:50), read-out: % WU 2 DAA PM

| SMILES | change in vivo at 500 µM [%] |
| --- | --- |
| CCCN1C(=O)CCc2cc(CNS(=O)(=O)c3ccc(OC)cc3)ccc21 [Compound 3.010, 4-methoxy-N-[(2-oxo-1-propyl-3,4-dihydroquinolin-6-yl)methyl]benzenesulfonamide] | -1.7 |
| CCN1C(=O)CCc2cc(CNS(=O)(=O)c3ccc(C)s3)ccc21 [Compound 2.061, N-[(1-ethyl-2-oxo-3,4-dihydroquinolin-6-yl)methyl]-5-methyl-thiophene-2-sulfonamide] | -1.2 |
| CCN1C(=O)CCc2cc(CNS(=O)(=O)c3ccsc3)ccc21 [Compound 2.068, N-[(1-ethyl-2-oxo-3,4-dihydroquinolin-6-yl)methyl]thiophene-3-sulfonamide] | -7.5 |

Same assay, conditions: Glycine max, foliar, 60 h, Table B1, sprayed at 500 μM, vs negative control, cumulative total WU (0-2.5 DAA), read-out: % WU Total 0 to 2.5 DAA

| SMILES | change in vivo at 500 µM [%] |
| --- | --- |
| CCCN1C(=O)CCc2cc(CNS(=O)(=O)c3ccc(OC)cc3)ccc21 [Compound 3.010, 4-methoxy-N-[(2-oxo-1-propyl-3,4-dihydroquinolin-6-yl)methyl]benzenesulfonamide] | -5.7 |
| CCN1C(=O)CCc2cc(CNS(=O)(=O)c3ccc(C)s3)ccc21 [Compound 2.061, N-[(1-ethyl-2-oxo-3,4-dihydroquinolin-6-yl)methyl]-5-methyl-thiophene-2-sulfonamide] | -13.7 |
| CCN1C(=O)CCc2cc(CNS(=O)(=O)c3ccsc3)ccc21 [Compound 2.068, N-[(1-ethyl-2-oxo-3,4-dihydroquinolin-6-yl)methyl]thiophene-3-sulfonamide] | -15.3 |

Tested on: corn plants (variety NK OCTET)
Assay: Reduced plant water use in corn (foliar spray, repeated weighing of pots)
Format: in vivo
Details: Zea mays, 0 h, corn plants sprayed at 500 μM, water use during day time vs negative control, 0 DAA a.m. (10:30-12:50), average of 6 pots, read-out: % WU 0 DAA AM
Outline: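 Twelve-day-old corn plants sprayed on foliage with EC formulations diluted in water with 0.4% rape seed methyl ester. Day-time water use tracked by repeated pot weighing through 2.5 DAA, summed cumulatively; analysed by covariance with water use 1 day before application as baseline.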

| SMILES | change in vivo at 500 µM [%] |
| --- | --- |
| CCCN1C(=O)CCc2cc(CNS(=O)(=O)c3ccc(OC)cc3)ccc21 [Compound 3.010, 4-methoxy-N-[(2-oxo-1-propyl-3,4-dihydroquinolin-6-yl)methyl]benzenesulfonamide] | -14.4 |
| CCN1C(=O)CCc2cc(CNS(=O)(=O)c3ccc(C)s3)ccc21 [Compound 2.061, N-[(1-ethyl-2-oxo-3,4-dihydroquinolin-6-yl)methyl]-5-methyl-thiophene-2-sulfonamide] | -18.8 |
| CCN1C(=O)CCc2cc(CNS(=O)(=O)c3ccsc3)ccc21 [Compound 2.068, N-[(1-ethyl-2-oxo-3,4-dihydroquinolin-6-yl)methyl]thiophene-3-sulfonamide] | -16.6 |

Same assay, conditions: Zea mays, 0 h, corn plants sprayed at 500 μM, water use during day time vs negative control, 0 DAA p.m. (14:00-19:50), average of 6 pots, read-out: % WU 0DAA PM

| SMILES | change in vivo at 500 µM [%] |
| --- | --- |
| CCCN1C(=O)CCc2cc(CNS(=O)(=O)c3ccc(OC)cc3)ccc21 [Compound 3.010, 4-methoxy-N-[(2-oxo-1-propyl-3,4-dihydroquinolin-6-yl)methyl]benzenesulfonamide] | -8.3 |
| CCN1C(=O)CCc2cc(CNS(=O)(=O)c3ccc(C)s3)ccc21 [Compound 2.061, N-[(1-ethyl-2-oxo-3,4-dihydroquinolin-6-yl)methyl]-5-methyl-thiophene-2-sulfonamide] | -10.8 |
| CCN1C(=O)CCc2cc(CNS(=O)(=O)c3ccsc3)ccc21 [Compound 2.068, N-[(1-ethyl-2-oxo-3,4-dihydroquinolin-6-yl)methyl]thiophene-3-sulfonamide] | -15.1 |

Same assay, conditions: Zea mays, 24 h, corn plants sprayed at 500 μM, water use during day time vs negative control, 1 DAA a.m. (07:30-12:50), average of 6 pots, read-out: % WU 1DAA AM

| SMILES | change in vivo at 500 µM [%] |
| --- | --- |
| CCCN1C(=O)CCc2cc(CNS(=O)(=O)c3ccc(OC)cc3)ccc21 [Compound 3.010, 4-methoxy-N-[(2-oxo-1-propyl-3,4-dihydroquinolin-6-yl)methyl]benzenesulfonamide] | -6.3 |
| CCN1C(=O)CCc2cc(CNS(=O)(=O)c3ccc(C)s3)ccc21 [Compound 2.061, N-[(1-ethyl-2-oxo-3,4-dihydroquinolin-6-yl)methyl]-5-methyl-thiophene-2-sulfonamide] | -7.5 |
| CCN1C(=O)CCc2cc(CNS(=O)(=O)c3ccsc3)ccc21 [Compound 2.068, N-[(1-ethyl-2-oxo-3,4-dihydroquinolin-6-yl)methyl]thiophene-3-sulfonamide] | -12.9 |

Same assay, conditions: Zea mays, 24 h, corn plants sprayed at 500 μM, water use during day time vs negative control, 1 DAA p.m. (14:00-19:50), average of 6 pots, read-out: % WU 1DAA PM

| SMILES | change in vivo at 500 µM [%] |
| --- | --- |
| CCCN1C(=O)CCc2cc(CNS(=O)(=O)c3ccc(OC)cc3)ccc21 [Compound 3.010, 4-methoxy-N-[(2-oxo-1-propyl-3,4-dihydroquinolin-6-yl)methyl]benzenesulfonamide] | -5.4 |
| CCN1C(=O)CCc2cc(CNS(=O)(=O)c3ccc(C)s3)ccc21 [Compound 2.061, N-[(1-ethyl-2-oxo-3,4-dihydroquinolin-6-yl)methyl]-5-methyl-thiophene-2-sulfonamide] | -2.8 |
| CCN1C(=O)CCc2cc(CNS(=O)(=O)c3ccsc3)ccc21 [Compound 2.068, N-[(1-ethyl-2-oxo-3,4-dihydroquinolin-6-yl)methyl]thiophene-3-sulfonamide] | -11.4 |

Same assay, conditions: Zea mays, 48 h, corn plants sprayed at 500 μM, water use during day time vs negative control, 2 DAA a.m. (07:30-12:50), average of 6 pots, read-out: % WU 2 DAA AM

| SMILES | change in vivo at 500 µM [%] |
| --- | --- |
| CCCN1C(=O)CCc2cc(CNS(=O)(=O)c3ccc(OC)cc3)ccc21 [Compound 3.010, 4-methoxy-N-[(2-oxo-1-propyl-3,4-dihydroquinolin-6-yl)methyl]benzenesulfonamide] | -2.5 |
| CCN1C(=O)CCc2cc(CNS(=O)(=O)c3ccc(C)s3)ccc21 [Compound 2.061, N-[(1-ethyl-2-oxo-3,4-dihydroquinolin-6-yl)methyl]-5-methyl-thiophene-2-sulfonamide] | -1.6 |
| CCN1C(=O)CCc2cc(CNS(=O)(=O)c3ccsc3)ccc21 [Compound 2.068, N-[(1-ethyl-2-oxo-3,4-dihydroquinolin-6-yl)methyl]thiophene-3-sulfonamide] | -9.2 |

Same assay, conditions: Zea mays, 48 h, corn plants sprayed at 500 μM, water use during day time vs negative control, 2 DAA p.m. (14:00-19:50), average of 6 pots, read-out: % WU 2 DAA PM

| SMILES | change in vivo at 500 µM [%] |
| --- | --- |
| CCCN1C(=O)CCc2cc(CNS(=O)(=O)c3ccc(OC)cc3)ccc21 [Compound 3.010, 4-methoxy-N-[(2-oxo-1-propyl-3,4-dihydroquinolin-6-yl)methyl]benzenesulfonamide] | -2.2 |
| CCN1C(=O)CCc2cc(CNS(=O)(=O)c3ccc(C)s3)ccc21 [Compound 2.061, N-[(1-ethyl-2-oxo-3,4-dihydroquinolin-6-yl)methyl]-5-methyl-thiophene-2-sulfonamide] | -0.8 |
| CCN1C(=O)CCc2cc(CNS(=O)(=O)c3ccsc3)ccc21 [Compound 2.068, N-[(1-ethyl-2-oxo-3,4-dihydroquinolin-6-yl)methyl]thiophene-3-sulfonamide] | -9.1 |

Same assay, conditions: Zea mays, 60 h, corn plants sprayed at 500 μM, cumulative total water use 0-2.5 DAA (sum of the time points) vs negative control, average of 6 pots, read-out: % WU Total 0 to 2.5 DAA

| SMILES | change in vivo at 500 µM [%] |
| --- | --- |
| CCCN1C(=O)CCc2cc(CNS(=O)(=O)c3ccc(OC)cc3)ccc21 [Compound 3.010, 4-methoxy-N-[(2-oxo-1-propyl-3,4-dihydroquinolin-6-yl)methyl]benzenesulfonamide] | -5.5 |
| CCN1C(=O)CCc2cc(CNS(=O)(=O)c3ccc(C)s3)ccc21 [Compound 2.061, N-[(1-ethyl-2-oxo-3,4-dihydroquinolin-6-yl)methyl]-5-methyl-thiophene-2-sulfonamide] | -6.2 |
| CCN1C(=O)CCc2cc(CNS(=O)(=O)c3ccsc3)ccc21 [Compound 2.068, N-[(1-ethyl-2-oxo-3,4-dihydroquinolin-6-yl)methyl]thiophene-3-sulfonamide] | -11.8 |

Tested on: not given
Assay: not given
Details: not given

| melting point [°C] | SMILES |
| --- | --- |
| 143 to 144 | CCCN1C(=O)CCc2cc(CNS(=O)(=O)c3ccc(OC)cc3)ccc21 [Compound 3.010, 4-methoxy-N-[(2-oxo-1-propyl-3,4-dihydroquinolin-6-yl)methyl]benzenesulfonamide] |
| 149 to 152 | CCN1C(=O)CCc2cc(CNS(=O)(=O)c3ccc(C)s3)ccc21 [Compound 2.061, N-[(1-ethyl-2-oxo-3,4-dihydroquinolin-6-yl)methyl]-5-methyl-thiophene-2-sulfonamide] |
| 128 to 131 | CCN1C(=O)CCc2cc(CNS(=O)(=O)c3ccsc3)ccc21 [Compound 2.068, N-[(1-ethyl-2-oxo-3,4-dihydroquinolin-6-yl)methyl]thiophene-3-sulfonamide] |
